Laboratory results reported in patent publication US11903911B1, “Method of treating obesity by reversal of Na/K-Atpase inhibition” (Marshall University Research Corporation, priority 2019, dated 2024).
Entries after “also recorded” stand apart in the source; their conditions may differ.

Assays:
transporter activities = experiment: L-NAME dose finding on intestinal transporter activities; format: in vivo; settings: 10 or 25 mg/kg per day tested in mice and rats
Excerpt: (§1) Animal models and treatment. Zucker rats (Strain code: 185 (Obese), 186 (Lean); 18 wks) obtained from Charles River Laboratories International, Inc. were used as a genetic model of obesity, and C57BL/6 mice (B6) (The Jackson Laboratory) and Sprague Dawley rats (Strain code: 400; Charles River Laboratories International, Inc.) were used as a diet-induced model of obesity. B6 mice were fed with either a low-fat diet (LFD) (10% calories from fat; Cat. No: 58124, LabDiet, USA) or high-fat diet (HFD) (60% calories from fat; Cat. No: 58126, LabDiet, USA) starting at 4 weeks of age until they reached 20 weeks of age. Sprague Dawley rats were fed the above-mentioned diets from the age of 12 weeks for 6 weeks to induce obesity. To inhibit constitutive nitric oxide production in both mice and rats, the animals were first treated with either a 10 or 25 mg/kg per day dosage of used N^G-nitro-L-arginine methyl ester (L-NAME). Studies determined that 10 mg dose of L-NAME was the lowest dose to consistently affect transporter activities and was therefore used in all subsequent experiments. For the diet-induced mice obesity model, LFD and HFD fed B6 mice were treated with this dose from the age of 20 weeks, and Sprague Dawley rats were treated from the age of 17 wks for 1 week. All the experimental animals were handled and euthanized according to Marshall University IACUC regulations.

NHE3 = experiment: Na/H exchange (NHE3) uptake in BBMV of L-NAME-treated obese rats; format: in vivo, rat; settings: obese rats treated with L-NAME; FIG. 23
Excerpt: as §1, with “[…] Na/H exchange uptake was measured in BBMV by rapid filtration technique as previously described. […] The results” for “For the diet-induced mice obesity model, LFD and HFD fed B6 mice”, “expressed as Na/H exchange in picomoles per milligram protein at 60 sec.” for “treated with this dose from the age of 20 weeks, and Sprague Dawley rats were treated from the age of 17 wks for 1 week. All the experimental animals were handled and euthanized according to Marshall University IACUC regulations.”

SGLT1 = experiment: Na-glucose co-transport (SGLT1) uptake in villus cell BBMV of L-NAME-treated obese rats; format: in vivo, rat; settings: obese rats (OZR) treated for at least one week with L-NAME; FIG. 21
Excerpt: as §1, with “To inhibit constitutive nitric oxide production in both mice and rats, the animals were first treated with either a 10 or 25 mg/kg per day dosage of used N^G-nitro-L-arginine methyl ester (L-NAME).” left out, “For the diet-induced mice obesity model, LFD and HFD fed B6 mice were treated with this dose from the age of 20 weeks, and Sprague Dawley rats were treated from the age of 17 wks for 1 week. All the experimental animals were handled and euthanized according to Marshall University IACUC regulations.” left out
Uptake studies in intact villus cells and BBMVs. […] Filters with intact villus cells were dissolved in 5 ml scintillation fluid (Ecoscint, National Diagnostics), and radioactivity was determined in a Beckman 6500 Beta Scintillation Counter. […] The uptake experiment results were expressed as Na-glucose co-transport uptake in nanomoles per milligram protein at 60 sec for mice or 90 sec for rats. […]

[1] = tested on: Cl:HCO3 exchange (DRA/PAT1); experiment: Cl/HCO3 exchange uptake in BBMV of L-NAME-treated obese rats; format: in vivo, rat; settings: obese rats (OZR) treated for at least one week with L-NAME; FIG. 22
Excerpt: as §1, with “[…] Cl/HCO3 exchange uptake was measured in BBMV by rapid filtration technique as previously described. […] Results were calculated as” for “For”, “HCO3 dependent DIDS sensitive Cl uptake.” for “diet-induced mice obesity model, LFD and HFD fed B6 mice were treated with this dose from the age of 20 weeks, and Sprague Dawley rats were treated from the age of 17 wks for 1 week. All the experimental animals were handled and euthanized according to Marshall University IACUC regulations.”

## COC(=O)[C@@H](N)CCCNC(=N)N[N+](=O)[O-] [L-NAME, N^G-nitro-L-arginine methyl ester]
Transporter activities
  lowest dose to consistently affect transporter activities: 10 mg
NHE3
  effect on NHE3 activity in obese rats: did not affect NHE3; also recorded: does not affect NHE3 activity
SGLT1
  effect on the stimulation of SGLT1 (glucose absorption) in obese rats: reversed the stimulation of SGLT1
[1]
  effect on the stimulation of Cl:HCO3 (NaCl absorption) in obese rats: reversed the stimulation of Cl:HCO3
